Experimental data: patent publication US6406868B1, “AMPA-binding human GluR1 receptors” (priority 1992, dated 2002)

Tests used:
human GluR1B receptor [1] = test: AMPA-binding assay with membranes of transfected COS-1 cells; settings: 10 nM [3H]-AMPA; membrane preparations from human GluR1B receptor-producing COS cells; non-specific binding with 1 mM L-glutamate; FIG. 3
Protocol: (§1) Transfected cells in the frozen state were resuspended in ice-cold distilled water using a hand homogenizer, sonicated for 5 seconds, and then centrifuged for 20 minutes at 50,000 g. The supernatant was discarded and the membrane pellet stored frozen at −70° C.
(§2) COS cell membrane pellets were suspended in ice cold 5 mM Tris-HCI (pH 7.55, 5C) and centrifuged again at 50,000 g for 10 minutes in order to remove endogenous glutamate that would compete for binding. Pellets were resuspended in ice cold 50 mM Tris-HCl (pH 7.55) buffer and the resultant membrane preparation was used as tissue source for binding experiments described below. Proteins were determined using the Pierce Reagent with BSA as standard.
Binding assays were then performed, using an amount of COS-derived membrane equivalent to from 25-100 ug as judged by protein determination and selected radiolabelled ligand. In particular, for AMPA-binding assays, incubation mixtures consisted of 25-100 ug tissue protein and D,L-alpha-[5-methyl-3H]amino-3-hydroxy-5-methylisoxazole-4-propionic acid (3H-AMPA, 27.6Ci/mmole, 10 nM final) with 0.1 M KSCN and 2.5 mM CaCl2 in the 1 ml final volume. Non-specific binding was determined in the presence of 1 mM L-glutamate. […] Pellets were washed twice in 4 ml of the cold incubation buffer, then 5 ml of Beckman Ready-Protein Plus scintillation cocktail was added, for counting.

human GluR1B receptor [2] = test: NMDA binding to membranes of transfected COS-1 cells; settings: membrane preparations from human GluR1B receptor-producing COS cells
Protocol: as §1, §2

human GluR1B receptor [3] = test: kainate-binding assay with membranes of transfected COS-1 cells; settings: [vinylidene-3H] kainic acid 5 nM; membrane preparations from human GluR1B receptor-producing COS cells
Protocol: as §1, §2
For kainate-binding assays, incubation mixtures consisted of 25-100 ug tissue protein and [vinylidene-3H] kainic acid (58Ci/mmole, 5 nM final) in the cold incubation buffer, 1 ml final volume. Non-specific binding was determined in the presence of 1 mM L-glutamate. Samples were incubated as for the AMPA-binding assays, and bound and free ligand were separated by rapid filtration using a Brandel cell harvester and GF/B filters pre-soaked in ice-cold 0.3% polyethyleneimine. Filters were washed twice in 6 ml of the cold incubation buffer, then placed in scintillation vials with 5 ml of Beckman Ready-Protein Plus scintillation cocktail for counting.

`[3H]Cc1onc(O)c1CC(N)C(=O)O` (racemic) [[3H]-AMPA, D,L-alpha-[5-methyl-3H]amino-3-hydroxy-5-methylisoxazole-4-propionic acid] was tested, and the specific binding (human GluR1B receptor [1]) was 100-150 fmole/mg protein.
`CN[C@H](CC(=O)O)C(=O)O` [NMDA, N-methyl-D-aspartate] was tested, and the “binding of NMDA” value (human GluR1B receptor [2]) was “little or no demonstrable binding”.
In the case of `C=C(C)[C@H]1CN[C@H](C(=O)O)[C@H]1CC(=O)O` [kainate, [vinylidene-3H] kainic acid], the binding of kainate (human GluR1B receptor [3]) is reported as “little or no demonstrable binding”.
